Experimental data taken from US12661398B2, “Combination of a PD-1 antagonist, a VEGFR/FGFR/RET tyrosine kinase inhibitor and a CBP/beta-catenin inhibitor for treating cancer” (Eisai R&D Management Co., Ltd., priority 2019, dated 2026).

Tested on: mouse Renal cell carcinoma cell line RAG
Assay: Subcutaneous (s.c.) RAG transplantation model, anti-tumor effect of triple combination (Example 1)
Type: in vivo
Conditions: for CR rate: 28 days of administration
From the text: An Eagle's minimal essential medium (E-MEM) containing 10% fetal bovine serum (FBS) and penicillin/streptomycin (100 unit/mL each) was used to culture a mouse Renal cell carcinoma cell line RAG (ATCC number: CCL-142). Logarithmic growing cells were collected from flasks using Trypsin-EDTA. The suspension of cells was centrifuged to remove the supernatant. Next, Hanks' Balanced Salt Solution (HBSS) was used to prepare a cell suspension having a concentration of 2.5×10^7 cells/mL. The cell suspension was subcutaneously transplanted at a dose of 0.1 mL on the right lateral side of the body of each of 7-week-old mice (BALB/cAnNCrlCrlj, female, Charles River Laboratories Japan Inc.). Eight (8) days after the transplantation, an electronic digital caliper (Digimatic™ Caliper; Mitutoyo Corporation) was used to measure the short and long diameters of a tumor of interest. The following equations were used to calculate the tumor volume TV and RTV. Tumor Volume TV (mm^3)=Long Diameter (mm)×Short Diameter (mm)×Short Diameter (mm)/2 EQ. 1: Relative Tumor Volume RTV=TV on day n/TV on day1 EQ. 2:
Based on the tumor volumes on the first day of administration, grouping was carried out such that the average values of the tumor volumes were almost the same. A 1 mg/ml solution of lenvatinib was prepared using 3 mM HCl and was orally administered at a dose of 0.2 mL/20 g mouse body weight once daily for 28 days. 0.2 mL of an administration sample containing 1.0 mg/mL of an anti-mouse-PD-1 antibody (Clone: RMP1-14, BioXCell, Catalog #: BE0146), which had been diluted with PBS, was intraperitoneally administered (at a dosage of 200 μg/mouse) twice a week a total of 8 times (day 1, day 4, day 8, day 11, day 15, day 18, day 22, and day 25, with the day of the grouping set to day 1). A 2.5 mg/ml solution of E7386 was prepared using 0.1 M HCl and was orally administered at a dose of 0.2 mL/20 g mouse body weight once daily for 28 days. To the control group, nothing was administered. Each group including 8 mice was used to conduct the experiment. Twice a week (day 1, day 4, day 8, day 11, day 15, day 18, day 22, day 25, and day 29), the respective tumor volumes (TV) were determined for the control group, the lenvatinib administration group, the anti-mouse-PD-1 antibody administration group, lenvatinib+anti-mouse-PD-1 antibody administration group, E7386+lenvatinib administration group and triple combination group. The values obtained by logarithmically transforming the tumor volumes were used to carry out statistical analysis by repeated measured Dunnet's multiple comparison. E7386 is (6S,9aS)-N-benzyl-8-({6-[3-(4-ethylpiperazin-1-yl)azetidin-1-yl]pyridin-2-yl}methyl)-6-(2-fluoro-4-hydroxybenzyl)-4,7-dioxo-2-(prop-2-en-1-yl)hexahydro-2H-pyrazino[2,1-c][1,2,4]triazine-1(6H)-carboxamide.

[1] = Day 1 (day of grouping, first administration), BALB/c mice

Compound	CR rate (BALB/c mice)	tumor volume (TV) [1] [mm^3]	tumor volume (TV) (Day 4, BALB/c mice) [mm^3]	tumor volume (TV) (Day 8, BALB/c mice) [mm^3]	tumor volume (TV) (Day 11, BALB/c mice) [mm^3]	tumor volume (TV) (Day 15, BALB/c mice) [mm^3]	tumor volume (TV) (Day 18, BALB/c mice) [mm^3]	tumor volume (TV) (Day 22, BALB/c mice) [mm^3]	tumor volume (TV) (Day 25, BALB/c mice) [mm^3]	tumor volume (TV) (Day 29, BALB/c mice) [mm^3]
C=CCN1CC(=O)N2[C@@H](Cc3ccc(O)cc3F)C(=O)N(Cc3cccc(N4CC(N5CCN(CC)CC5)C4)n3)C[C@@H]2N1C(=O)NCc1ccccc1 [E7386, (6S,9aS)-N-benzyl-8-({6-[3-(4-ethylpiperazin-1-yl)azetidin-1-yl]pyridin-2-yl}methyl)-6-(2-fluoro-4-hydroxybenzyl)-4,7-dioxo-2-(prop-2-en-1-yl)hexahydro-2H-pyrazino[2,1-c][1,2,4]triazine-1(6H)-carboxamide]	1 out of 8 mice	62	93	148	210	301	408	588	723	923
COc1cc2nccc(Oc3ccc(NC(=O)NC4CC4)c(Cl)c3)c2cc1C(N)=O [Lenvatinib, 4-[3-chloro-4-(cyclopropylaminocarbonyl)aminophenoxy]-7-methoxy-6-quinolinecarboxamide]	0 out of 8 mice	62	82	102	134	152	175	162	166	151
